Assay results from patent publication US11166940B2, “Treatment of cardiac disorders by blocking SK4 potassium channel” (Ramot at Tel-Aviv University Ltd., priority 2016, dated 2021).

Legend:
CASQ2-D307H KI mice = test: In vivo telemetric ECG recording in CASQ2-D307H KI mice; design: species or system mouse; conditions: 20 mg/kg IP; for number of mice, most severe ECG form: NSVT / number of mice, most severe ECG form: Normal (sinusal rhythm) / number of mice, most severe ECG form: SVT / number of mice, most severe ECG form: VPC: n=5 Clotrimazole, n=12 TRAM-34
Source text: (§1) Telemetric ambulatory long-term ECG recordings, analogous to Holter monitoring in humans, were obtained with implantable transmitters. […] An implantable 3.5 grams wireless radiofrequency transmitter (DSI MM USA, device weight 3.8 grams) was aseptically inserted into a subcutaneous tissue pocket in the back as described in Katz, G., et al. Heart Rhythm 7, 1676-1682 (2010) and Kurtzwald-Josefson, E., et al. Heart Rhythm 11, 1471-1479 (2014)]. Animals were allowed to recover after surgery for at least 24 hours before any experiments. Baseline electrocardiograms (ECG) were obtained 15 minutes after IP injection of the appropriate vehicle (peanut oil or peanut oil supplemented with ethanol 1%). […] Telemetered ECG tracings were obtained in conscious mice at rest for one minute and during peak exercise (i.e. the first minute of recovery). In the treadmill exercise, mice were forced to exercise on a rodent treadmill; gradually increasing the speed up to a maximum of 15 m/minute. Ventricular tachycardia (VT) was defined as four or more consecutive ventricular beats. If this phenotype was consecutively observed for more than 15 seconds, it was defined as “sustained” ventricular tachycardia (SVT). Shorter VTs were characterized as “non-sustained” (NSVT). All other ventricular arrhythmias, such as premature beats, ventricular bigeminy, couplets and triplets were all defined as ventricular premature contractions (VPCs).
(§2) A heart telemetry device was implanted in WT, CASQ2-D307H KI and CASQ2 KO mice for continuous ECG recording at rest and during treadmill exercise. For each session, continuous ECG recording was performed with the same animals receiving first intraperitoneal (IP) injection of vehicle (peanut oil) and then the SK4 channel blocker.
(§3) The types of arrhythmic features were classified following their seriousness: sinusal rhythm (normal), ventricular premature contractions (VPC), non-sustained ventricular tachycardia (NSVT) and sustained ventricular tachycardia (SVT). For each mouse was considered the most severe form of arrhythmia recorded under ECG.

[1] = tested on: T type and L-type Ca2+ currents; test: Selectivity: voltage-ramp protocol in hESC-CMs, zero free Ca2+ in pipet; type: cell-based, human; conditions: 5 μM TRAM-34; zero free Ca2+ in pipet solution; n=7
Description: The experiments were performed in zero free Ca2+ in the pipet solution.

WT mice = test: In vivo telemetric ECG recording in WT (normal) mice; design: species or system mouse; conditions: 20 mg/kg IP, WT mice at rest
Source text: as §1
as §2, with “For this, a” for “A”, “norma” for “WT, CASQ2-D307H KI and CASQ2 KO”, “20 mg/kg clotrimazole.” for “the SK4 channel blocker.”
as §2

If and INCX currents = conditions: 5 μM TRAM-34; cited from earlier work
CASQ2 KO mice = test: In vivo telemetric ECG recording in CASQ2 KO mice; design: species or system mouse; conditions: 20 mg/kg IP; for number of mice, most severe ECG form: NSVT / number of mice, most severe ECG form: Normal (sinusal rhythm) / number of mice, most severe ECG form: SVT / number of mice, most severe ECG form: VPC: n=6
Source text: as §1, §2, §3

[2] = tested on: intact SAN tissue preparations from WT mice; test: Spontaneous calcium transients ex vivo in intact SAN tissue from WT mice (Fluo-4 AM); type: cell-based, mouse; conditions: 2 μM TRAM-34 in presence of 100 nM isoproterenol
Description: SAN tissue preparations were dissected ex vivo from WT and CASQ2-D307H KI mice as described in Torrente, A. G., et al. Proc Natl Acad Sci USA 112, 9769-9774 (2015). The dissected whole SAN tissue was pinned on a hand-made chamber and was incubated in a Tyrode solution containing 10 μM Fluo-4 AM (Thermo Fisher Scientific) and pluronic acid for 1 hour at 37° C. in the dark. The SAN tissue was washed in Tyrode at 37° C. in the dark for 10 minutes before experiments. Fluorescence of calcium transients was recorded using a photomultiplier (PTi D-104) at 35° C. and the analog signals were digitized using Digidata 1440 (Molecular Devices) and analyzed with pCLAMP 10.5 software.
To investigate the spontaneous calcium transients of the SAN, intact SAN tissue preparations dissected ex vivo from WT and CASQ2-D307H KI mice were exposed to Fluo-4 AM as previously described [Torrente, A. G., et al. Proc Natl Acad Sci USA 112, 9769-9774 (2015)].
FIG. 6A (Left) presents representative traces of spontaneous calcium transients recorded ex vivo in intact SAN tissue preparations from WT mice. […] Right: data summary of calcium transient rate (one-way-ANOVA***P=0.0003; n=12).

CPVT2 hiPSC-CMs = test: Spontaneous APs and DADs in hiPS-CMs derived from CPVT2 (CASQ2 D307H) patients; type: cell-based, human; conditions: 5 μM TRAM-34 added to 3 μM isoproterenol
Description: In all experiments, the coverslips were perfused at 33° C. with an external solution containing (in mM): 140 NaCl, 4 KCl, 11 Glucose, 1.2 MgCl2, 1.8 CaCl2, 5.5 HEPES titrated to pH 7.4 with NaOH and adjusted at 320 mOsm with sucrose.
FIG. 4F (Left) presents representative traces of spontaneous APs recorded in hiPS-CM derived from a CPVT2 (CASQ2 D307H) patients. From a regular pacing (black trace), DADs appeared when the cell was exposed to 3 μM isoproterenol (red trace, arrows). […] The suppression of cell 540 automaticity was reversible upon washout (blue trace). FIG. 4F (Right) present bar graphs showing data summary of pacing rate (n=17), on APD50 (n=17) and DADs (Normalized to Ctrl; one-way ANOVA***P=0.0001, n=15).

For Clc1ccccc1C(c1ccccc1)(c1ccccc1)n1cccn1 [TRAM-34, 1-[(2-chlorophenyl)diphenylmethyl]-1H-pyrazole], the PR prolongation (CASQ2-D307H KI mice; KI mice at rest, n=12) was 23%, the heart rate decrease (CASQ2-D307H KI mice; KI mice at rest, n=12) was 24±4% and the “sinus rate and PR interval” value (CASQ2-D307H KI mice; KI mice during treadmill exercise) was “significant sinus bradycardia and PR interval prolongation”. The “mice with ECG arrhythmic features totally suppressed” value (CASQ2-D307H KI mice; KI mice, resting conditions) was 9 out of 12, the “number of mice, most severe ECG form: NSVT” value (“number of mice … NSVT” below) (CASQ2-D307H KI mice; KI at rest) was 0 and the “number of mice, most severe ECG form: Normal (sinusal rhythm)” value (“number of mice … (sinusal rhythm)” for short) (CASQ2-D307H KI mice; KI at rest) was 9. The “number of mice, most severe ECG form: SVT” value (CASQ2-D307H KI mice; KI at rest) was 0, the “number of mice, most severe ECG form: VPC” value (“number of mice … VPC” for short) (CASQ2-D307H KI mice; KI at rest) was 3 and the “number of mice … NSVT” value (CASQ2-D307H KI mice; KI during Exercise) was 4. The “number of mice … (sinusal rhythm)” value (CASQ2-D307H KI mice; KI during Exercise) was 4, the “number of mice, most severe ECG form: SVT” value (CASQ2-D307H KI mice; KI during Exercise) was 0 and the “number of mice … VPC” value (CASQ2-D307H KI mice; KI during Exercise) was 4. The “T type and L type Ca2+ currents (two inward humps)” value [1] was “does not alter the voltage-gated Ca2+ currents”, the “prolongation of the PR interval” value (WT mice) was 20% and the “reduction of resting heart rate” value (WT mice; vs vehicle in same animal) was 16±3%. For the same compound, the “If and INCX currents” value (If and INCX currents) was “unaffected”, the PR prolongation (CASQ2 KO mice; KO mice at rest, n=7) was 46% and the heart rate decrease (CASQ2 KO mice; KO mice at rest, n=7) was 34±7%. The “sinus rate and PR interval” value (CASQ2 KO mice; KO mice during treadmill exercise) was “significant sinus bradycardia and PR interval prolongation”, the “number of mice … NSVT” value (CASQ2 KO mice; KO at rest) was 0 and the “number of mice … (sinusal rhythm)” value (CASQ2 KO mice; KO at rest) was 6. The “number of mice, most severe ECG form: SVT” value (CASQ2 KO mice; KO at rest) was 0, the “number of mice … VPC” value (CASQ2 KO mice; KO at rest) was 0 and the “number of mice … NSVT” value (CASQ2 KO mice; KO during exercise) was 3. The “number of mice … (sinusal rhythm)” value (CASQ2 KO mice; KO during exercise) was 3, the “number of mice, most severe ECG form: SVT” value (CASQ2 KO mice; KO during exercise) was 0 and the “number of mice … VPC” value (CASQ2 KO mice; KO during exercise) was 0. The “pattern of the Ca2+ waves” value [2] was “did not alter the pattern of the Ca^2+ waves”, the “number of DADs” value (CPVT2 hiPSC-CMs) was “drastically reduced the number of DADs” and the spontaneous activity (CPVT2 hiPSC-CMs) was “reversible cessation of the spontaneous activity”.
